We go through 52 compounds from PubChem BioAssay AID1996.

Usually kinetic solubility stands for solubility judged after dilution from a stock solution rather than from solid.

Each structure is given as a SMILES string. ≈ marks a conversion by molar mass, not a printed value. A value given as a limit tells only on which side of the number the result lay.

For this data set the following is noted: buffer; pH 7.4; 200.0 µM.
`CC(C)Cc1ccc(C(=O)NCCOc2ccccc2)o1`: the kinetic solubility was found to be 0.0292 mg/mL (≈ 102 µM).
Take `Cc1ccc(NC(=O)CN2C(=O)S/C(=C/c3ccncc3)C2=O)cc1`: the kinetic solubility came to 0.0022 mg/mL (≈ 6.23 µM). Compared with the last compound, the solubility kinetic is about 13-fold lower.
The result for `CC(OC(=O)C1CCCC1)C(=O)Nc1ncc(Cl)cc1Cl` (configuration not stated) reads 0.0491 mg/mL (≈ 148 µM).
Consider `CC(=O)N(C)N(C)c1cc(C)nc(N)n1`, for which the kinetic solubility was > 0.0314 mg/mL.
The compound `O=S1(=O)CCC(=Nc2ccc(Cl)cc2)c2ccsc21` had a kinetic solubility of 0.0203 mg/mL (≈ 65.1 µM).
Next, `Cc1ccc2[nH]c(C)c(CCNCc3ccco3)c2c1.Cl`: 0.0429 mg/mL; `COc1cc2c(cc1OC)C(C)N(C(=O)Nc1cc(C)cc(C)c1)CC2` (configuration not stated): 0.0027 mg/mL (≈ 7.62 µM); `O=C(c1ccc(Cl)c(S(=O)(=O)N2CCOCC2)c1)N1CCCC1`: > 0.0538 mg/mL.
In turn, `COC(=O)c1ccc2nc(-c3ccc4c(c3)OCO4)cn2c1` came in with a kinetic solubility of 0.0012 mg/mL (≈ 4.05 µM).
Regarding `CN(C)c1cccc(C(=O)NCc2ccc3c(c2)OCO3)c1`, the solubility (kinetic) is > 0.0448 mg/mL.
The result for `Cc1cccc(OCC(=O)Nc2ccncc2)c1C` reads 0.0378 mg/mL (≈ 147 µM); that for `Cc1noc(C)c1C(=O)Nc1nccs1`, > 0.0335 mg/mL.
With `CC(=O)N1CCN(C(=O)CSc2ncnc3sc(C)c(C)c23)CC1`, the solubility (kinetic) is > 0.0547 mg/mL.
With `Cn1cnnc1SCC(=O)Nc1ccc(N2CCOCC2)cc1`, the kinetic solubility was > 0.05 mg/mL.
Regarding `CN1CCN(c2ncnc(Cl)c2N)CC1`, the solubility (kinetic) was > 0.0342 mg/mL.
For the compound `O=C(Cc1ccc(F)cc1)N1CCOCC1`, the kinetic solubility was > 0.0335 mg/mL.
For the compound `Cc1ccc2[nH]c(CCN(C)C)c(CN3CCOCC3)c2c1`, the solubility (kinetic) is > 0.0452 mg/mL.
With `CCN(C(=O)COC(=O)c1ccc[nH]c1=O)c1cccc2ccccc12`, the solubility (kinetic) was > 0.0526 mg/mL.
For `CCOC(=O)C1CCN(C(=O)Nc2cccc(OC)c2)CC1`, the kinetic solubility is > 0.046 mg/mL.
With `CSCCn1c(C(C)(C)C)cc(C(=O)O)c1C`, the kinetic solubility was determined as 0.0313 mg/mL (≈ 123 µM).
For the compound `Cc1noc(C)c1COc1ccc(C(=O)N2CCN(S(=O)(=O)c3cccc(F)c3)CC2)cc1`, the kinetic solubility was found to be 0.0251 mg/mL (≈ 53 µM).
On to `Cc1ccnc(NC(=O)c2ccc(C(=O)c3ccccc3)cc2)c1`, for which the kinetic solubility turned out to be 0.0258 mg/mL (≈ 81.6 µM). This solubility kinetic and that of the compound before are within 1.5-fold of each other.
Compound `COc1cc(C)ccc1S(=O)(=O)NC1CC(C)(C)NC(C)(C)C1` yielded a solubility (kinetic) of 0.035 mg/mL (≈ 103 µM).
The result for `O=C(CSc1ncccc1C(=O)O)NC1CCCCC1` reads 0.0398 mg/mL (≈ 135 µM).
Turning to `N#Cc1ccc(COC(=O)c2cnc3ccccc3n2)cc1`, the kinetic solubility worked out at 0.0061 mg/mL (≈ 21.1 µM).
Turning to `Cc1cc(C)c(NC(=O)COC(=O)C2CCC2)c(Cl)c1`, the kinetic solubility came out at 0.0422 mg/mL (≈ 143 µM).
`CN1C(=O)c2ccc(NC(=O)c3cccc4ccccc34)cc2C1=O` came in with a solubility (kinetic) of 0.0008 mg/mL (≈ 2.42 µM).
Compound `O=C1N(Cc2ccc(F)cc2)CCN1c1ccc(F)cc1` displayed a solubility (kinetic) of 0.0293 mg/mL (≈ 102 µM).
`CCOC(=O)c1[nH]cnc1C(=O)Nc1ccc([N+](=O)[O-])cc1` had a solubility (kinetic) of 0.005 mg/mL (≈ 16.4 µM). Against the preceding compound, the solubility kinetic is about 5.9-fold lower.
In turn, `COc1cccc(/C=C(\CC(=O)O)c2nc3ccccc3s2)c1` returned a kinetic solubility of 0.0411 mg/mL (≈ 126 µM).
On to `CC1C(=O)N2CCCc3cc(S(=O)(=O)N4CCCCC4)cc1c32` (configuration not stated), for which the kinetic solubility was > 0.0502 mg/mL.
The result for `Cc1ccc(C)c(CN2CCN(c3ncccn3)CC2)c1` reads 0.0174 mg/mL (≈ 61.6 µM); that for `O=C(CSc1nccc(=O)[nH]1)Nc1ccc2c(c1)OCCO2`, 0.0408 mg/mL (≈ 128 µM).
Compound `COc1ccc(C(=O)CCC(C)(C)[N+](=O)[O-])cc1` showed a solubility (kinetic) of 0.0318 mg/mL (≈ 127 µM). This solubility kinetic and that of the compound before are within 1.5-fold of each other.
As to `CN(CCc1ccccc1)c1ccc([N+](=O)[O-])cn1`, the kinetic solubility is 0.0096 mg/mL (≈ 37.3 µM). Against the preceding compound, the solubility kinetic is about 3.3-fold lower.
`CN(CC(=O)Nc1ccc(F)cc1)C(=O)Cc1ccsc1`: the solubility (kinetic) is > 0.046 mg/mL.
`CC(C)C(=O)Nc1c(-c2cccc(Cl)c2)c(=O)c2ccccc2n1C`: the solubility (kinetic) was found to be 0.0101 mg/mL (≈ 28.5 µM).
Consider `CC(C)N(Cc1ccc(F)cc1)C(=O)c1cc2ccccc2oc1=O`, for which the kinetic solubility came out at 0.0008 mg/mL (≈ 2.36 µM).
Regarding `Cc1ccc(SCCC(=O)OC(C(=O)NC(N)=O)C(C)C)cc1` (configuration not stated), the kinetic solubility came to 0.007 mg/mL (≈ 20.7 µM).
Next, `O=C(Nc1ccc(Cl)cc1)c1ccc(-c2ccccn2)s1`: < 0.0003 mg/mL.
In the case of `CC1C(=O)Nc2ccc(S(=O)(=O)N3CCCCCC3)cc21` (configuration not stated), the solubility (kinetic) is > 0.0463 mg/mL.
Take `CC1CCC(NC(=O)c2cc3ccccc3cc2O)CC1` (configuration not stated): the kinetic solubility amounted to 0.0043 mg/mL (≈ 15.2 µM).
In turn, `O=[N+]([O-])c1cccc2ccc(N3CCOCC3)nc12` gave a solubility (kinetic) of 0.0384 mg/mL (≈ 148 µM).
Next, `CCN(CC(=O)NCc1ccc(F)cc1)C(=O)/C=C/c1ccco1`: > 0.0496 mg/mL.
As for `CSc1ccc(NC(N)=S)cc1`, the kinetic solubility was > 0.0297 mg/mL.
Next, `COc1ccc(S(=O)(=O)NCCc2ccncc2)cc1`: 0.0407 mg/mL (≈ 139 µM); `O=C(Nc1ccccn1)Nc1ccccc1[N+](=O)[O-]`: 0.0029 mg/mL (≈ 11.2 µM).
In the case of `O=C(O)c1cccc(NC(=S)NC(=O)c2cncc(Br)c2)c1`, the solubility (kinetic) is > 0.057 mg/mL.
The compound `O=S(=O)(c1ccc(-c2ccccn2)s1)N1CCC2(CC1)OCCO2` displayed a kinetic solubility of 0.0015 mg/mL (≈ 4.09 µM).
The result for `Oc1ccccc1CNc1cccc2cccnc12` reads 0.0193 mg/mL (≈ 77.1 µM); that for `COC(=O)c1cc(C)ccc1OCc1ccc([N+](=O)[O-])cc1`, < 0.0006 mg/mL; that for `O=c1c2ccccc2nc(/C=C/c2ccc(F)cc2)n1-c1ccccc1O`, 0.0052 mg/mL (≈ 14.5 µM).
